Measured values published in patent US20120101083A1, “S1P1 AGONISTS COMPRISING A BICYCLIC N-CONTAINING RING” (GLAXO GROUP LIMITED, priority 2009, published 2012).
pEC50: −log10 of the molar value. Where a name gives a salt, the structure may show the parent alone.

Assays:
[1] = biological target: T1, S1P1 receptor (S1P1 expressing RH7777 membranes) (Homo sapiens, UniProt P21453); experiment: S1P1 GTPγS assay; format: biochemical; details: tested in one of the above S1P1 assays (two GTPγS formats)
T1 construct: expressed in transfected cells; host or cells: RH7777 cells (membranes)
Method in brief: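 Membranes from RH7777 cells expressing human S1P1 (1.5 μg/well) precoupled 30 min on ice to WGA SPA beads in 20 mM HEPES pH 7.4, 10 mM MgCl2, 100 mM NaCl, with 10 μM GDP and 90 μg/ml saponin. [35S]-GTPγS 0.5 nM final added with compound; SPA signal read immediately.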

[2] = biological target: T2, S1P1 (PathHunter CHO-K1 EDG1 β-Arrestin cell line) (Homo sapiens, UniProt P21453); experiment: S1P-1 β-Arrestin recruitment assay; format: cell-based; details: CHO-K1 EDG1 β-Arrestin cells, chemi-luminescence
T2 construct: host or cells: PathHunter CHO-K1 EDG1 β-Arrestin cell line
Method in brief: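 CHO-K1 cells expressing S1P1 and β-arrestin 2 fused to complementing β-galactosidase fragments, at 1×10^4 cells/well in pH 7.4 buffer with 0.1% BSA. Compound exposure 90 min at 37 °C then 15 min room temperature; chemiluminescent substrate added for 60 min before luminescence read.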

T2 sequence (P21453 whole entry): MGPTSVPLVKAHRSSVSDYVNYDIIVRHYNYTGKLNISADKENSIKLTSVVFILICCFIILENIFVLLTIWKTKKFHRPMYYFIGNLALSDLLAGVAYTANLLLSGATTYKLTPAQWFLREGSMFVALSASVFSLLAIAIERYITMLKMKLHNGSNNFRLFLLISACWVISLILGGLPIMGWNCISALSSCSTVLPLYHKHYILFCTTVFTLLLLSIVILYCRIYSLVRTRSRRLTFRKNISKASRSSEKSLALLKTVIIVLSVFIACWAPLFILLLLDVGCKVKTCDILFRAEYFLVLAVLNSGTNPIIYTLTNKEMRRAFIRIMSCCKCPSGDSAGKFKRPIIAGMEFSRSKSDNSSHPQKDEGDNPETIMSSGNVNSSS
T2 sequence (P32121 whole entry partner): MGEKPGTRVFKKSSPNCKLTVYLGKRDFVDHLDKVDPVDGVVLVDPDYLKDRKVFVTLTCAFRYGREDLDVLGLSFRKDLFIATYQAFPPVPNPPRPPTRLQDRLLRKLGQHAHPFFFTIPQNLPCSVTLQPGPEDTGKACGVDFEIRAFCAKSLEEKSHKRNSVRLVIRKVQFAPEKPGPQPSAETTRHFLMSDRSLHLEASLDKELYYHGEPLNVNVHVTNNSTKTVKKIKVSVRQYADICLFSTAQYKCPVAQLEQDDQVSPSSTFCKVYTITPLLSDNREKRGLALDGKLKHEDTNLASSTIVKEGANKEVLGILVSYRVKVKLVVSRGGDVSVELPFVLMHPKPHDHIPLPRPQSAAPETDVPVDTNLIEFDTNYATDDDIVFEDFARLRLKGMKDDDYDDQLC
T1 sequence (P21453 whole entry): as the sequence (P21453 whole entry) above

SMILES | pEC50 [1] | pEC50 [2]
CC(C)Oc1ccc(-c2nc(-c3ccc4c(c3)CCN(C[C@H](O)CO)CC4)no2)cc1C#N [Example 72, 5-(3-{3-[(2S)-2,3-dihydroxypropyl]-2,3,4,5-tetrahydro-1H-3-benzazepin-7-yl}-1,2,4-oxadiazol-5-yl)-2-[(1-methylethyl)oxy]benzonitrile] | ≥ 7.00 | ≥ 8.00
Cc1c(-c2noc(-c3ccc(OC(C)C)c(C#N)c3)n2)ccc2c1CCN(C[C@@H](O)CO)C2 [Example 73, 5-(3-{2-[(2R)-2,3-dihydroxypropyl]-5-methyl-1,2,3,4-tetrahydro-6-isoquinolinyl}-1,2,4-oxadiazol-5-yl)-2-[(1-methylethyl)oxy]benzonitrile hydrochloride] | ≥ 7.00 | ≥ 8.00
CC(C)Oc1ccc(-c2nc(-c3ccc4c(c3)CCN(C[C@@H](O)CO)CC4)no2)cc1C#N [Example 74, 5-(3-{3-[(2R)-2,3-dihydroxypropyl]-2,3,4,5-tetrahydro-1H-3-benzazepin-7-yl}-1,2,4-oxadiazol-5-yl)-2-[(1-methylethyl)oxy]benzonitrile] | ≥ 7.00 | ≥ 7.00
CC(C)Oc1ccc(-c2nc(-c3ccc4c(c3)CCN(CC(=O)NC[C@H](C)O)CC4)no2)cc1C#N [Example 75, 2-[7-(5-{3-cyano-4-[(1-methylethyl)oxy]phenyl}-1,2,4-oxadiazol-3-yl)-1,2,4,5-tetrahydro-3H-3-benzazepin-3-yl]-N-[(2S)-2-hydroxypropyl]acetamide hydrochloride] | ≥ 7.00 | ≥ 8.00
CC(C)Oc1ncc(-c2nc(-c3ccc4c(c3)CCN(C(=O)[C@@H](N)[C@@H](C)O)CC4)no2)cc1C#N [Example 77, 2-[(1-methylethyl)oxy]-5-[3-(3-L-threonyl-2,3,4,5-tetrahydro-1H-3-benzazepin-7-yl)-1,2,4-oxadiazol-5-yl]-3-pyridinecarbonitrile hydrochloride] | ≥ 6.00 | ≥ 7.00
CC(C)Oc1ccc(-c2nc(-c3ccc4c(c3)CCN(CC(=O)N[C@H](C)CO)CC4)no2)cc1C#N [Example 78, 2-[7-(5-{3-cyano-4-[(1-methylethyl)oxy]phenyl}-1,2,4-oxadiazol-3-yl)-1,2,4,5-tetrahydro-3H-3-benzazepin-3-yl]-N-(1R)-2-hydroxy-1-methylethyl]acetamide hydrochloride] | ≥ 6.00 | ≥ 7.00
Cc1c(-c2noc(-c3cnc(OC(C)C)c(C#N)c3)n2)ccc2c1CCN(C(=O)[C@@H](N)[C@@H](C)O)C2 [Example 79, 2-[(1-methylethyl)oxy]-5-[3-(5-methyl-2-L-threonyl-1,2,3,4-tetrahydro-6-isoquinolinyl)-1,2,4-oxadiazol-5-yl]-3-pyridinecarbonitrile hydrochloride] | ≥ 7.00 | ≥ 8.00
CC(C)Oc1ccc(-c2nc(-c3ccc4c(c3)CCN(CC(=O)N[C@@H](C)CO)CC4)no2)cc1C#N [Example 80, 2-[7-(5-{3-cyano-4-[(1-methylethyl)oxy]phenyl}-1,2,4-oxadiazol-3-yl)-1,2,4,5-tetrahydro-3H-3-benzazepin-3-yl]-N-[(1S)-2-hydroxy-1-methylethyl]acetamide hydrochloride] | ≥ 7.00 | ≥ 8.00
CC(C)Oc1ccc(-c2nc(-c3ccc4c(c3)CCN(C(=O)[C@@](C)(N)CO)CC4)no2)cc1C#N [Example 81, 2-[(1-methylethyl)oxy]-5-{3-[3-(2-methyl-L-seryl)-2,3,4,5-tetrahydro-1H-3-benzazepin-7-yl]-1,2,4-oxadiazol-5-yl}benzonitrile] | ≥ 7.00 | ≥ 7.00
Cc1c(-c2noc(-c3ccc(OC(C)C)c(C#N)c3)n2)ccc2c1CCN(C(=O)[C@@](C)(N)CO)C2 [Example 82, 2-[(1-methylethyl)oxy]-5-{3-[5-methyl-2-(2-methyl-L-seryl)-1,2,3,4-tetrahydro-6-isoquinolinyl]-1,2,4-oxadiazol-5-yl}benzonitrile] | ≥ 6.00 | ≥ 7.00
CC(C)Oc1ccc(-c2nc(-c3ccc4c(c3)CCN(C(=O)CN3CC(O)C3)CC4)no2)cc1C#N [Example 106, 5-(3-{3-[(3-hydroxy-1-azetidinyl)acetyl]-2,3,4,5-tetrahydro-1H-3-benzazepin-7-yl}-1,2,4-oxadiazol-5-yl)-2-[(1-methylethyl)oxy]benzonitrile hydrochloride] | ≥ 6.00 | ≥ 7.00
CC(C)Oc1ccc(-c2nc(-c3ccc4c(c3)CCN(CC(=O)NCCO)CC4)no2)cc1C#N [Example 111, 2-[7-(5-{3-cyano-4-[(1-methylethyl)oxy]phenyl}-1,2,4-oxadiazol-3-yl)-1,2,4,5-tetrahydro-3H-3-benzazepin-3-yl]-N-(2-hydroxyethyl)acetamide hydrochloride] | ≥ 7.00 | ≥ 8.00
CC(C)Nc1ncc(-c2nc(-c3ccc4c(c3)CCN(C(=O)CN)CC4)no2)cc1C#N [Example 112, 5-[3-(3-glycyl-2,3,4,5-tetrahydro-1H-3-benzazepin-7-yl)-1,2,4-oxadiazol-5-yl]-2-[(1-methylethyl)amino]-3-pyridinecarbonitrile] | ≥ 6.00 | ≥ 7.00
CC(C)Nc1ncc(-c2nc(-c3ccc4c(c3)CCN(C[C@H](O)CO)CC4)no2)cc1C#N [Example 114, 5-(3-{3-[(2S)-2,3-dihydroxypropyl]-2,3,4,5-tetrahydro-1H-3-benzazepin-7-yl}-1,2,4-oxadiazol-5-yl)-2-[(1-methylethyl)amino]-3-pyridinecarbonitrile] | ≥ 6.00 | ≥ 7.00
CCOc1ncc(-c2nc(-c3ccc4c(c3)CCN(C[C@H](O)CO)CC4)no2)cc1C#N [Example 116, 5-(3-{34[(2S)-2,3-dihydroxypropyl]-2,3,4,5-tetrahydro-1H-3-benzazepin-7-yl}-1,2,4-oxadiazol-5-yl)-2-(ethyloxy)-3-pyridinecarbonitrile] | ≥ 6.00 | ≥ 7.00
Cc1c(-c2noc(-c3ccc(OC(C)C)c(C#N)c3)n2)ccc2c1CCN(CC(=O)N[C@H](C)CO)C2 [Example 118, 2-[6-(5-{3-cyano-4-[(1-methylethyl)oxy]phenyl}-1,2,4-oxadiazol-3-yl)-5-methyl-3,4-dihydro-2(1H)-isoquinolinyl]-N-(1R)-2-hydroxy-1-methylethyl]acetamide hydrochloride] | ≥ 7.00 | ≥ 8.00

The next lines start with the values.

pEC50 [1] | pEC50 [2] | SMILES
≥ 7.00 | ≥ 7.00 | Cc1c(-c2noc(-c3ccc(OC(C)C)c(C#N)c3)n2)ccc2c1CCN(C[C@H](O)CO)C2 [Example 71, 5-(3-{2-[(2S)-2,3-dihydroxypropyl]-5-methyl-1,2,3,4-tetrahydro-6-isoquinolinyl}-1,2,4-oxadiazol-5-yl)-2-[(1-methylethyl)oxy]benzonitrile hydrochloride]
≥ 8.00 | ≥ 8.00 | CC(C)Oc1ccc(-c2nc(-c3cccc4c3CCN(CC(O)CO)C4)no2)cc1C#N (centres unmarked) [Example 76, 5-{3-[2-(2,3-dihydroxypropyl)-1,2,3,4-tetrahydro-5-isoquinolinyl]-1,2,4-oxadiazol-5-yl}-2-[(1-methylethyl)oxy]benzonitrile]
≥ 8.00 | ≥ 8.00 | CC(C)Oc1ccc(-c2nc(-c3cccc4c3CCN(C(=O)CN)C4)no2)cc1C#N [Example 87, 5-[3-(2-glycyl-1,2,3,4-tetrahydro-5-isoquinolinyl)-1,2,4-oxadiazol-5-yl]-2-[(1-methylethyl)oxy]benzonitrile hydrochloride]
9.00 | ≥ 8.00 | CC(C)Oc1ccc(-c2nc(-c3cccc4c3CCN(C(=O)[C@@H](N)CO)C4)no2)cc1C#N [Example 89, 2-[(1-methylethyl)oxy]-5-[3-(2-L-seryl-1,2,3,4-tetrahydro-5-isoquinolinyl)-1,2,4-oxadiazol-5-yl]benzonitrile hydrochloride]
≥ 8.00 | ≥ 7.00 | CC(C)Oc1ccc(-c2nc(-c3cccc4c3CCN(C(=O)[C@H](N)CO)C4)no2)cc1C#N [Example 90, 2-[(1-methylethyl)oxy]-5-[3-(2-D-seryl-1,2,3,4-tetrahydro-5-isoquinolinyl)-1,2,4-oxadiazol-5-yl]benzonitrile hydrochloride]
≥ 8.00 | ≥ 7.00 | CC(C)Oc1ccc(-c2nc(-c3ccc4c(c3)CCN(CC(=O)N3CCOCC3)CC4)no2)cc1C#N [Example 92, 2-[(1-methylethyl)oxy]-5-(3-{3-[2-(4-morpholinyl)-2-oxoethyl]-2,3,4,5-tetrahydro-1H-3-benzazepin-7-yl}-1,2,4-oxadiazol-5-yl)benzonitrile hydrochloride]
≥ 8.00 | ≥ 8.00 | CC(C)Oc1ccc(-c2nc(-c3ccc4c(c3)CCN(CC(=O)N3CC(O)C3)CC4)no2)cc1C#N [Example 93, 5-(3-{3-[2-(3-hydroxy-1-azetidinyl)-2-oxoethyl]-2,3,4,5-tetrahydro-1H-3-benzazepin-7-yl}-1,2,4-oxadiazol-5-yl)-2-[(1-methylethyl)oxy]benzonitrile hydrochloride]
≥ 8.00 | ≥ 8.00 | COC(=O)NCCN1CCc2ccc(-c3noc(-c4ccc(OC(C)C)c(C#N)c4)n3)cc2CC1 [Example 100, methyl {2-[7-(5-{3-cyano-4-[(1-methylethyl)oxy]phenyl}-1,2,4-oxadiazol-3-yl)-1,2,4,5-tetrahydro-3H-3-benzazepin-3-yl]ethyl}carbamate]
≥ 8.00 | ≥ 7.00 | CCNC(=O)NCCN1CCc2ccc(-c3noc(-c4ccc(OC(C)C)c(C#N)c4)n3)cc2CC1 [Example 105, N-{2-[7-(5-{3-cyano-4-[(1-methylethyl)oxy]phenyl}-1,2,4-oxadiazol-3-yl)-1,2,4,5-tetrahydro-3H-3-benzazepin-3-yl]ethyl}-N′-ethylurea]
